The results in this text go back to patent US12624018B1, “Inhibitors of RIPK2 and medical uses thereof” (Odyssey Therapeutics, Inc., priority 2022, dated 2026).

Some results are limits rather than exact numbers.

T1 sequence (O43353 1-299 limits assumed): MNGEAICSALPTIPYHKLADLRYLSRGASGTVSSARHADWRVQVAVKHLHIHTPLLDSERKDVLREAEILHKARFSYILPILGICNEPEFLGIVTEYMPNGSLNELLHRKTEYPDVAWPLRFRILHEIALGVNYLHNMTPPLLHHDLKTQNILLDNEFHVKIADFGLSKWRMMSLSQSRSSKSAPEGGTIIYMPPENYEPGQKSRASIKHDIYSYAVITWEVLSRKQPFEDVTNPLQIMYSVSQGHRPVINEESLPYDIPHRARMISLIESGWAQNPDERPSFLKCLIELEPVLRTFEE

This assay concerns the target T1, RIPK2 enzyme (Homo sapiens, UniProt O43353).
T1 construct: purchased Carna 09-128
Description: RIPK2 inhibition (ADP-Glo Kinase Assay). The class given is biochemical. Conditions: RIPK2 5 nM, ATP 150 μM, MBP substrate, read-out: RIPK2 IC50. Summed up:
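Swine MBP substrate; compound and 5 nM RIPK2 first mixed for 30 min at room temperature; buffer pH 7.5 HEPES 50 mM with 10 mM MgCl2, 2 mM DTT, 1 mM EGTA, Brij-35, BSA.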
Background: ADP-Glo turns the ADP formed in a reaction into a luminescent signal.
Consider `Cc1cc(CC(=O)Nc2cnn(C(C)(C)C)c2)c(F)cc1Oc1ccnc2ccc(O[C@H]3C[C@H]4CC[C@@H](C3)N4)cc12` [Compound 410, 2-(4-((6-(((1R,3r,5S)-8-azabicyclo[3. 2.1]octan-3-yl)oxy)quinolin-4-yl)oxy)-2-fluoro-5-methyl-pheny1)-N-(1-(tert-butyl)-1H-pyrazol-4-yl)acetamide], for which the IC50 was below 2.5 nM.
Consider `Cc1cc(CC(=O)Nc2cnn(C(C)(C)C)c2)c(F)cc1Oc1ccnc2ccc(C(C)(C)C#N)cc12` [Compound 411, N-(1-(tert-butyl)-1H-pyrazol-4-yl)-2-(4-((6-(2-cyanopropan-2-yl)quinolin-4-yl)oxy)-2-fluoro-5-methylphenyl)acetamide], for which the 50% inhibitory concentration (IC50) is below 2.5 nM.
The value for `COc1cc2nccc(Oc3cc(F)c(CC(=O)Nc4cnn(C(C)(C)C)c4)cc3C)c2cc1S(C)(=O)=O` [Compound 412, N-(1-(tert-butyl)-1H-pyrazol-4-yl)-2-(2-fluoro-4-((7-methoxy-6-(methylsulfonyl)quinolin-4-yl)oxy)-5-methylphenyl) acetamide] was below 2.5 nM.
Turning to `Cc1cc(CC(=O)Nc2cnn(C(C)(C)C)c2)c(F)cc1Oc1ccnc2ccc(N3CCOC3=O)cc12` [Compound 414, N-(1-(tert-butyl)-1H-pyrazol-4-yl)-2-(2-fluoro-5-methyl-4-((6-(2-oxooxazolidin-3-yl)quinolin-4-yl)oxy)phenyl) acetamide], the IC50 is below 2.5 nM.
Consider `Cc1cc(CC(=O)Nc2cnn(C(C)(C)C)c2)c(F)cc1Oc1ccnc2ccc(S(=O)(=O)CC(C)(C)O)cc12` [Compound 415, N-(1-(tert-butyl)-1H-pyrazol-4-yl)-2-(2-fluoro-4-((6-((2-hydroxy-2-methylpropyl)sulfonyl)quinolin-4-yl)oxy)-5-methylphenyl)acetamide], for which the concentration for half-maximal inhibition (IC50) is below 2.5 nM.
As for `Cc1cc(CC(=O)Nc2cnn(C(C)(C)C)c2)c(F)cc1Oc1ccnc2ccc(S(=O)(=O)C3CC3)cc12` [Compound 416, N-(1-(tert-butyl)-1H-pyrazol-4-yl)-2-(4-((6-(cyclopropylsulfonyl)quinolin-4-yl)oxy)-2-fluoro-5-methylphenyl)acetamide], the IC50 was below 2.5 nM.
The value for `CCS(=O)(=O)c1ccc2nccc(Oc3ccc(CC(=O)Nc4cnn(C(C)(C)C)c4)cc3C(F)F)c2c1` [Compound 417, N-(1-(tert-butyl)-1H-pyrazol-4-yl)-2-(3-(difluoromethyl)-4-((6-(ethylsulfonyl)quinolin-4-yl)oxy)phenyl) acetamide] was below 2.5 nM.
Regarding `CC(C)(C)n1cc(NC(=O)Cc2ccc(Oc3ccnc4ccc(S(=O)(=O)C5CC5)cc34)c(C(F)F)c2)cn1` [Compound 418, N-(1-(tert-butyl)-1H-pyrazol-4-yl)-2-(4-((6-(cyclopropyl-sulfonyl)quinolin-4-yl)oxy)-3-(difluoromethyl)phenyl)acetamide], the IC50 was below 2.5 nM.
Take `Cc1cc(CC(=O)Nc2cnn(C(C)(C)C)c2)c(F)cc1Oc1ccnc2ccc(CN3CCNCC3)cc12` [Compound 419, N-(1-(tert-butyl)-1H-pyrazol-4-yl)-2-(2-fluoro-5-methyl-4-((6-(piperazin-1-ylmethyl)quinolin-4-yl)oxy)phenyl)acetamide]: the IC50 is below 2.5 nM.
The value for `Cc1cc(CC(=O)Nc2cnn(C(C)(C)C)c2)c(F)cc1Oc1ccnc2ccc(CN3C[C@@H]4C[C@H]3CN4)cc12` [Compound 420, 2-(4-((6-(((1S,4S)-2,5-diazabicyclo[2.2.1]heptan-2-yl)methyl)quinolin-4-yl)oxy)-2-fluoro-5-methylphenyl)-N-(1-(tert-butyl)-1H-pyrazol-4-yl)acetamide] was below 2.5 nM; that for `Cc1cc(CC(=O)Nc2cnn(C(C)(C)C)c2)c(F)cc1Oc1ccnc2ccc(CN3C[C@H]4C[C@@H]3CN4)cc12` [Compound 421, 2-(4-((6-(((1R,4R)-2,5-diazabicyclo[2.2.1]heptan-2-yl)methyl)quinolin-4-yl)oxy)-2-fluoro-5-methylphenyl)-N-(1-(tert-butyl)-1H-pyrazol-4-yl)acetamide] was below 2.5 nM; that for `Cc1cc(CC(=O)Nc2cnn(C(C)(C)C)c2)c(F)cc1Oc1ccnc2ccc(CN3C[C@@H]4C[C@H]3CO4)cc12` [Compound 422, 2-(4-((6-(((1S,4S)-2-oxa-5-azabicyclo[2.2.1]heptan-5-yl)methyl)quinolin-4-yl)oxy)-2-fluoro-5-methylphenyl)-N-(1-(tert-butyl)-1H-pyrazol-4-yl)acetamide] was below 2.5 nM.
As for `Cc1cc(CC(=O)Nc2cnn(C(C)(C)C)c2)c(F)cc1Oc1ccnc2ccc(CN3C[C@H]4C[C@@H]3CO4)cc12` [Compound 423, 2-(4-((6-(((1R,4R)-2-oxa-5-azabicyclo[2.2.1]heptan-5-yl)methyl)quinolin-4-yl)oxy)-2-fluoro-5-methylphenyl)-N-(1-(tert-butyl)-1H-pyrazol-4-yl)acetamide], the IC50 was below 2.5 nM.
With `Cc1cc(CC(=O)Nc2cnn(C(C)(C)C)c2)c(F)cc1Oc1ccnc2ccc(-c3ncccn3)cc12` [Compound 424, N-(1-(tert-butyl)-1H-pyrazol-4-yl)-2-(2-fluoro-5-methyl-4-((6-(pyrimidin-2-yl)quinolin-4-yl)oxy)phenyl)acetamide], the IC50 was below 2.5 nM.
The value for `Cc1cc(CC(=O)Nc2cnn(C(C)(C)C)c2)c(F)cc1Oc1ccnc2ccc(-c3cnccn3)cc12` [Compound 425, N-(1-(tert-butyl)-1H-pyrazol-4-yl)-2-(2-fluoro-5-methyl-4-((6-(pyrazin-2-yl)quinolin-4-yl)oxy)phenyl)acetamide] was below 2.5 nM.
The value for `Cc1cc(CC(=O)Nc2cnn(C(C)(C)C)c2)c(F)cc1Oc1ccnc2ccc(-c3cccnn3)cc12` [Compound 426, N-(1-(tert-butyl)-1H-pyrazol-4-yl)-2-(2-fluoro-5-methyl-4-((6-(pyridazin-3-yl)quinolin-4-yl)oxy)phenyl)acetamide] was below 2.5 nM; that for `Cc1cc(CC(=O)Nc2cnn(C(C)(C)C)c2)c(F)cc1Oc1ccnc2ccc(-c3ncn(C)n3)cc12` [Compound 427, N-(1-(tert-butyl)-1H-pyrazol-4-yl)-2-(2-fluoro-5-methyl-4-((6-(1-methyl-1H-1,2,4-triazol-3-yl)quinolin-4-yl)oxy)phenyl)acetamide] was below 2.5 nM; that for `Cc1cc(CC(=O)Nc2cnn(C(C)(C)C)c2)c(F)cc1Oc1ccnc2ccc(-c3ncnn3C)cc12` [Compound 428, N-(1-(tert-butyl)-1H-pyrazol-4-yl)-2-(2-fluoro-5-methyl-4-((6-(1-methyl-1H-1,2,4-triazol-5-yl)quinolin-4-yl)oxy)phenyl)acetamide] was below 2.5 nM.
Turning to `CCS(=O)(=O)c1ccc2nccc(Oc3cc(F)c(CC(=O)Nc4cnn(C(C)(C)C)c4)cc3Cl)c2c1` [Compound 430, N-(1-(tert-butyl)-1H-pyrazol-4-yl)-2-(5-chloro-4-((6-(ethylsulfonyl)quinolin-4-yl)oxy)-2-fluorophenyl)acetamide], the IC50 is below 2.5 nM.
For the compound `Cc1cc(CC(=O)Nc2nnc(C(C)(C)C)o2)ccc1Oc1ccnc2ccc(S(C)(=O)=O)cc12` [Compound 431, N-(5-(tert-butyl)-1,3,4-oxadiazol-2-yl)-2-(3-methyl-4-((6-(methylsulfonyl)quinolin-4-yl)oxy)phenyl) acetamide], the IC50 is below 2.5 nM.
As to `CC(C)(C)n1cc(NC(=O)Cc2ccc(Oc3ccnc4ccc(S(C)(=O)=O)cc34)c(C#N)c2)cn1` [Compound 432, N-(1-(tert-butyl)-1H-pyrazol-4-yl)-2-(3-cyano-4-((6-(methylsulfonyl)quinolin-4-yl)oxy)phenyl)acetamide], the IC50 amounted to 2.8 nM.

As a reminder, the IC50 is the point on the concentration scale where inhibition reaches its midpoint.
